Experimental data as given in article PMC5342726, “Identification of small molecule inhibitors of ERCC1-XPF that inhibit DNA repair and potentiate cisplatin efficacy in cancer cells” (Oncotarget, 2016).

Columns and labels:
XPG = molecular target: T1, XPG (Homo sapiens, UniProt P28715); assay: Secondary screen, fluorescence assay with XPG endonuclease; format: biochemical; settings: compound titration in the HTS assay
T1 sequence (P28715 1-1186): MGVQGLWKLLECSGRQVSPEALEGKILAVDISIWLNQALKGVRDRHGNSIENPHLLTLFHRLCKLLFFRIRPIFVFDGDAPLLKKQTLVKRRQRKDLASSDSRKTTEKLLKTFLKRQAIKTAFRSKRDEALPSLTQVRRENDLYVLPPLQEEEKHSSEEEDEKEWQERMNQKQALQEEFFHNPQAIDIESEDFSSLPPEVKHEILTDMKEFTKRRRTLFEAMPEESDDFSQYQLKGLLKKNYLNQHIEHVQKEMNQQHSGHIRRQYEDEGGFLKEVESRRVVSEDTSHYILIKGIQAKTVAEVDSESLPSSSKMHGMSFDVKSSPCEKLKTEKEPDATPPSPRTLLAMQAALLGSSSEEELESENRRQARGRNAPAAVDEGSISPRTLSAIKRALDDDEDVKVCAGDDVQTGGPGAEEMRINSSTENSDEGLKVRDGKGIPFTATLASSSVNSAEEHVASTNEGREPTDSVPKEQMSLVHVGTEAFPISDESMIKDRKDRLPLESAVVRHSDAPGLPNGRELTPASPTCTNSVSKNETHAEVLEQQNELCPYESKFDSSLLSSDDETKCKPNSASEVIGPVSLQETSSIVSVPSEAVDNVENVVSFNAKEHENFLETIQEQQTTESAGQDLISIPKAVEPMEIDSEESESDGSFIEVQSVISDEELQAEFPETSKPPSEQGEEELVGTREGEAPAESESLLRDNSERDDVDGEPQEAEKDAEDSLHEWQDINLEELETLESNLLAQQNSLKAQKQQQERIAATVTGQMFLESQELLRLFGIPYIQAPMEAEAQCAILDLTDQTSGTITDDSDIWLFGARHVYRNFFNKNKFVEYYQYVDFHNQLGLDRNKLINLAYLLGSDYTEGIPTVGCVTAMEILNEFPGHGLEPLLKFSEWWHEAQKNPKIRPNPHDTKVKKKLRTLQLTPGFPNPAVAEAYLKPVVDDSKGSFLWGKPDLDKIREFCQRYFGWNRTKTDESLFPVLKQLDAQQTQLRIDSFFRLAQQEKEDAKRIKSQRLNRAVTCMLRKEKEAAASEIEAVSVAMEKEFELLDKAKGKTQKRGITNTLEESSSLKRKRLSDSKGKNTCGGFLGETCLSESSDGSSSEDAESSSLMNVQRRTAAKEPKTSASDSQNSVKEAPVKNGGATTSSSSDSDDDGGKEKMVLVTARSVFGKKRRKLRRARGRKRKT

H460 cells = assay: Colony survival assay in H460 cells; format: cell-based; settings: for IC50: Homo sapiens, NCI-H460, Fig 4C, compound 4 h, cisplatin fixed at IC50 added after 2 h, read-out: compound titration with cisplatin at the IC50, colony survival; for fold change in cisplatin IC50 in combination: combination with cisplatin; for effect of compound alone on colony survival: compound titrated alone, 4 h
Experimental: We used H460, NSCLC cells, to first assess the impact on colony survival by knocking down ERCC1-XPF in these cells. […] Next, to assess if colony survival is affected we titrated cisplatin in these cells using a fixed concentration of Hit 1(50 μM) or Hit 2 (25 and 50 μM). […] Next, we assessed cisplatin potentiation by treating cells at a fixed cisplatin concentration (cisplatin IC50 in H460 cells) with Hit 1 or 2 titration (Figure 4C, filled symbols). H460 cells were treated with compound for a total of 4 hours while cisplatin was added to the media after 2 hours of compound pre-treatment. […] We also titrated Hit 1 or Hit 2 alone in these cells and treated for 4 h. […] We also assessed the effects of Hit 2 in another NSCLC cell line (H1299), which was either ERCC1 wildtype (WT) or knockout (KO) (Figure 4E).
Colony survival assay in a total reaction volume of 2.4 mL in a six-well plate Cells were split and seeded at a density of 300-400 format. Cells were transfected for 48 hours after which cells in a 60 mm plate and incubated overnight. The next complete media was added for 24 hours. Cells were day, the cells were treated with a fixed concentration of the seeded for clones and clones were selected using standard compound (Hit 1 or Hit 2) with cisplatin titration. After methods. ERCC1 KO clones were tested for ERCC1 treatment, fresh complete medium with antibiotics was and XPF expression by Western Blot using the ERCC1 added and the cells were then allowed to form colonies. In antibodies, 8F1, FL-297, and D-10 and the XPF antibody another method, the cells were seeded onto 60mm plates 3F2/3 (Santa Cruz).
Validation of genome editing was performed alone or titrated with a fixed concentration of cisplatin by PCR amplification with Taq polymerase (NEB) of (IC50 for the cell line used). Post treatment, the cells were exon 2 within the genomic DNA using the forward allowed to form colonies. Colonies were fixed with 95% primer: 5’ […]
methanol and stained with 0.2 % crystal violet. Colonies 3’ and the reverse primer: 5’ […]
with ≥50 cells were counted using a light microscope. Cell […] 3’. PCR product was cloned […]
survival was expressed as the ratio of average number of into a linearized pCR4-TOPO vector and transformed colonies in drug treated cells versus control cells x 100. into OneShot TOP10 E. coli using the TOPO-TA Cloning The experiment was done in triplicate for each drug Kit for Sequencing (Thermofisher). Bacterial colonies concentration. We have previously published the methods were selected with ampicillin and plasmid was extracted for ERCC1 and XPF knockdowns, which were used as using standard procedures. Plasmid was sequenced by controls. Briefly, cells were seeded onto six-well plates GeneWiz using an M13R primer. Potential sites of off-target editing in coding sequences were identified during
(density 2.5 × 10^5 cells /well) in antibiotic free media. guide RNA design with the Optimized CRISPR Design Two transfections were done at 24 h interval in each cell Tool. Primers were designed to amplify the exons line to knockdown ERCC1-XPF together according to containing the potential off-target sites and PCR product the manufacturer ’s (Dharmacon’s smartpools) protocol. was sequenced by GeneWiz. A list of specific off-target Addition of lipid reagent (Dharmafect 2, Dharmacon) sites and primers used to assess these off-target effects are […]

| SMILES | effect on XPG activity (XPG) | IC50 (H460 cells) | fold change in cisplatin IC50 in combination (H460 cells) | effect of compound alone on colony survival (H460 cells) |
| --- | --- | --- | --- | --- |
| Cc1ccc(S(=O)(=O)Oc2cc(S(=O)(=O)O)cc3cc(S(=O)(=O)O)cc(N)c23)cc1 [NSC16168] | no effect | 4 µM | ~ 3 fold | no effect on colony survival |
| Oc1cc(O)c2c(c1)OC(c1ccc(O)c(O)c1)C(O)C2c1c(O)cc(O)c2c1OC(c1ccc(O)c(O)c1)C(O)C2 (centres unmarked) [NSC143099] | some effect on XPG activity at higher concentrations | 15 µM | ~ 3 fold | no effect on colony survival |
